According to patent US11046716B2, “Beta-lactamase inhibitors” (priority 2015, dated 2021):
pIC50: −log10 of the molar value.

Columns and labels:
[1] = tested on: K. pneumoniae expressing the class A carbapenemase KPC-2 and the class B carbapenemase VIM-4; test: Broth microdilution MIC assay with meropenem, K. pneumoniae KPC-2 and VIM-4; type: cell-based; conditions: Fixed Mero (meropenem) 4 μg/mL; K. p. A-1797 KPC-2 VIM-4
Method in brief: (§1)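 Test compounds in 2-fold dilutions (16 to 0.125 μg/mL final) in CAMHB were combined with a β-lactam at a static 4 μg/ml final. Plates were inoculated per CLSI broth microdilution with the β-lactamase-producing strain (pre-grown 3-5 h) and incubated 16-20 h at 37° C. MIC of test compound was read visually.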

VIM-2 = molecular target: T1, VIM-2 (Escherichia coli, UniProt Q5U7L7); test: β-lactamase enzyme inhibition assay, VIM-2 (nitrocefin substrate); type: biochemical; conditions: Class B; nitrocefin substrate, 486 nm; read-out: VIM-2
T1 construct: made in house; host or cells: E. coli BL21(DE3)
Method in brief: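 Purified VIM-2 preincubated with inhibitor for 15 min at 37° C, then nitrocefin (100 μM final) added and absorbance at 486 nm followed for 10 min. Maximum hydrolysis rates compared with inhibitor-free controls; IC50 fitted from percent inhibition across inhibitor concentrations.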

[2] = tested on: P. aeruginosa expressing the Class B carbapenemase VIM-2; test: Broth microdilution MIC assay with meropenem, P. aeruginosa VIM-2; type: cell-based; conditions: Fixed Mero (meropenem) 4 μg/mL; P. aerug. 2775 VIM-2
Method in brief: as §1

[3] = tested on: E. cloacae expressing the Class C P99; test: Broth microdilution MIC assay with ceftazidime, E. cloacae P99; type: cell-based; conditions: Fixed CAZ (ceftazidime) 4 μg/mL; E. cl. 144200 p99 AmpC
Method in brief: as §1

[4] = tested on: K. pneumoniae producing the Class D carbapenemase OXA-48; test: Broth microdilution MIC assay with meropenem, K. pneumoniae OXA-48; type: cell-based; conditions: Fixed Mero (meropenem) 4 μg/mL; K. p. 11978 OXA-48
Method in brief: as §1

AmpC = molecular target: T2, AmpC (Enterobacter cloacae, UniProt P05364); test: β-lactamase enzyme inhibition assay, p99 AmpC (nitrocefin substrate); type: biochemical
T2 construct: made in house; host or cells: E. coli BL21(DE3)
Method in brief: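 Read-out is the rate of β-lactam ring hydrolysis monitored by absorbance. Recombinant native enzymes were first incubated with compound at 37 °C for 15 min. The IC50 is the inhibitor concentration that halves the initial hydrolysis rate.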

[5] = tested on: K. pneumoniae expressing the Class A carbapenemase KPC-2; test: Broth microdilution MIC assay with meropenem, K. pneumoniae KPC-2; type: cell-based; conditions: Fixed Mero (meropenem) 4 μg/mL; K. p. 156319 KPC-3
Method in brief: as §1

SHV-5 = molecular target: T3, SHV-5 (Klebsiella pneumoniae, UniProt P0A3M1); test: β-lactamase enzyme inhibition assay, SHV-5 (cefotaxime substrate); type: biochemical
T3 construct: made in house; host or cells: E. coli BL21(DE3)
Method in brief: (§2)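 Read-out is the rate of β-lactam ring hydrolysis monitored by absorbance: 300 nm for imipenem with KPC-2 and 260 nm for cefotaxime with SHV-5. Recombinant native enzymes were first incubated with compound at 37 °C for 15 min. The IC50 is the inhibitor concentration that halves the initial hydrolysis rate.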

KPC-2 = molecular target: T4, KPC-2 (Klebsiella pneumoniae, UniProt Q9F663); test: β-lactamase enzyme inhibition assay, KPC-2 (imipenem substrate); type: biochemical; conditions: Class A; imipenem substrate, 300 nm; read-out: KPC-2
T4 construct: made in house; host or cells: E. coli BL21(DE3)
Method in brief: as §2

[6] = tested on: E. coli expressing the Class A Extended Spectrum Beta-Lactamase (ESBL) CTX-M-15; test: Broth microdilution MIC assay with ceftazidime, E. coli CTX-M-15; type: cell-based; conditions: Fixed CAZ (ceftazidime) 4 μg/mL; E. coli ESBL4 CTX-M-15
Method in brief: as §1

OXA-48 = OXA-48 (UniProt Q6XEC0); test: β-lactamase enzyme inhibition assay, Class D oxacillinase; type: biochemical; conditions: read-out: OXA-48

T2 sequence (P05364 21-381): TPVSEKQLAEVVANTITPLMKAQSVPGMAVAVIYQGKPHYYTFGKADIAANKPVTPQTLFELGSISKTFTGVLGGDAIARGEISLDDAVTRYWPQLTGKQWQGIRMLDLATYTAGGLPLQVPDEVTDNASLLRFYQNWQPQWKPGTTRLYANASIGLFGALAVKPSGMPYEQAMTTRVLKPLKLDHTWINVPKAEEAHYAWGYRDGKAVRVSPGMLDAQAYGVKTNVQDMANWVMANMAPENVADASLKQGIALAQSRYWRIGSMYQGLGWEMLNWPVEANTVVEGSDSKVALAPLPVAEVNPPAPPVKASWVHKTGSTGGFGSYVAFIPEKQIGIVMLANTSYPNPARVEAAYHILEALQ
T4 sequence (Q9F663 25-293, looked up): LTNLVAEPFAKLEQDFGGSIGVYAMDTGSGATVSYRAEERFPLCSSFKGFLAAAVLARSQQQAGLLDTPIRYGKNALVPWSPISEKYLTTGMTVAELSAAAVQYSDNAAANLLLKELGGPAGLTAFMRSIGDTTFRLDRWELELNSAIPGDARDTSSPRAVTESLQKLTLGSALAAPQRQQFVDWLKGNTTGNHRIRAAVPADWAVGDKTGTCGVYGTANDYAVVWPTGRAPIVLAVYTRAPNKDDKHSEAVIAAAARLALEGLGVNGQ
T3 sequence (P0A3M1 22-286): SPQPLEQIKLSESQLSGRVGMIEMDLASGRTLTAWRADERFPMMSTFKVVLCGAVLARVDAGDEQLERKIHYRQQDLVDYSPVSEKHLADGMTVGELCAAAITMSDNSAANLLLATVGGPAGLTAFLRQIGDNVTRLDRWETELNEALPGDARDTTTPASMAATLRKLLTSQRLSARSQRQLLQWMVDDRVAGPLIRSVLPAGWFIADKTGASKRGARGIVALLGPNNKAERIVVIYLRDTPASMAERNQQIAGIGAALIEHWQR

| SMILES | MIC (μg/mL) of Exemplary Compounds in presence of fixed β-lactams: K. p. A-1797 KPC-2 VIM-4 [1] | pIC50 (VIM-2) | MIC (μg/mL) of Exemplary Compounds in presence of fixed β-lactams: P. aerug. 2775 VIM-2 [2] | MIC (μg/mL) of Exemplary Compounds in presence of fixed β-lactams: E. cl. 144200 p99 AmpC [3] | MIC (μg/mL) of Exemplary Compounds in presence of fixed β-lactams: K. p. 11978 OXA-48 [4] | pIC50 (AmpC) | MIC (μg/mL) of Exemplary Compounds in presence of fixed β-lactams: K. p. 156319 KPC-3 [5] | pIC50 (SHV-5) | pIC50 (KPC-2) | MIC (μg/mL) of Exemplary Compounds in presence of fixed β-lactams: E. coli ESBL4 CTX-M-15 [6] | pIC50 (OXA-48) |
| --- | --- | --- | --- | --- | --- | --- | --- | --- | --- | --- | --- |
| O=C(Cn1cc(C(=O)NC2CNC2)nn1)N[C@H]1Cc2cccc(C(=O)O)c2OB1O [Example 88, (R)-3-(2-(4-(azetidin-3-ylcarbamoyl)-1H-1,2,3-triazol-1-yl)acetamido)-2-hydroxy-3,4-dihydro-2H-benzo[e][1,2]oxaborinine-8-carboxylic acid] | C (C represents an MIC of <1 μg/mL) | > 7.00 | C (C represents an MIC of <1 μg/mL) | C (C represents an MIC of <1 μg/mL) | B (B represents an MIC between 1 and 16 μg/mL inclusive) | > 7.00 | B (B represents an MIC between 1 and 16 μg/mL inclusive) | 6.00 to 7.00 | > 7.00 | C (C represents an MIC of <1 μg/mL) | 5.00 to 6.00 |
| O=C(Cc1nnn[nH]1)N[C@H]1Cc2cccc(C(=O)O)c2OB1O [Example 40, (R)-3-(2-(1H-tetrazol-5-yl)acetamido)-2-hydroxy-3,4-dihydro-2H-benzo[e][1,2]oxaborinine-8-carboxylic acid] | B (B represents an MIC between 1 and 16 μg/mL inclusive) | 5.00 to 6.00 | B (B represents an MIC between 1 and 16 μg/mL inclusive) | C (C represents an MIC of <1 μg/mL) | B (B represents an MIC between 1 and 16 μg/mL inclusive) | > 7.00 | C (C represents an MIC of <1 μg/mL) | > 7.00 | > 7.00 | C (C represents an MIC of <1 μg/mL) | 6.00 to 7.00 |
| O=C(Cn1cnnn1)N[C@H]1Cc2cccc(C(=O)O)c2OB1O [Example 97, (R)-3-(2-(1H-tetrazol-1-yl)acetamido)-2-hydroxy-3,4-dihydro-2H-benzo[e][1,2]oxaborinine-8-carboxylic acid] | B (B represents an MIC between 1 and 16 μg/mL inclusive) | 6.00 to 7.00 | B (B represents an MIC between 1 and 16 μg/mL inclusive) | C (C represents an MIC of <1 μg/mL) | C (C represents an MIC of <1 μg/mL) | > 7.00 | C (C represents an MIC of <1 μg/mL) | > 7.00 | > 7.00 | C (C represents an MIC of <1 μg/mL) | > 7.00 |
| NCCONC(=O)c1cn(CC(=O)N[C@H]2Cc3cccc(C(=O)O)c3OB2O)nn1 [Example 61, (R)-3-(2-(4-((2-aminoethoxy)carbamoyl)-1H-1,2,3-triazol-1-yl)acetamido)-2-hydroxy-3,4-dihydro-2H-benzo[e][1,2]oxaborinine-8-carboxylic acid] | B (B represents an MIC between 1 and 16 μg/mL inclusive) | 6.00 to 7.00 | C (C represents an MIC of <1 μg/mL) | C (C represents an MIC of <1 μg/mL) | B (B represents an MIC between 1 and 16 μg/mL inclusive) | > 7.00 | B (B represents an MIC between 1 and 16 μg/mL inclusive) | > 7.00 | > 7.00 | C (C represents an MIC of <1 μg/mL) | 6.00 to 7.00 |
| O=C(Cn1cc2c(n1)CNC2)N[C@H]1Cc2cccc(C(=O)O)c2OB1O [Example 57, (R)-3-(2-(5,6-dihydropyrrolo[3,4-c]pyrazol-2(4H)-yl)acetamido)-2-hydroxy-3,4-dihydro-2H-benzo[e][1,2]oxaborinine-8-carboxylic acid] | B (B represents an MIC between 1 and 16 μg/mL inclusive) | 6.00 to 7.00 | B (B represents an MIC between 1 and 16 μg/mL inclusive) | C (C represents an MIC of <1 μg/mL) | B (B represents an MIC between 1 and 16 μg/mL inclusive) | > 7.00 | C (C represents an MIC of <1 μg/mL) | > 7.00 | > 7.00 | C (C represents an MIC of <1 μg/mL) | 5.00 to 6.00 |
| NCc1ccc(-c2cn(CC(=O)N[C@H]3Cc4cccc(C(=O)O)c4OB3O)nn2)cn1 [Example 75, (R)-3-(2-(4-(6-(aminomethyl)pyridin-3-yl)-1H-1,2,3-triazol-1-yl)acetamido)-2-hydroxy-3,4-dihydro-2H-benzo[e][1,2]oxaborinine-8-carboxylic acid] | B (B represents an MIC between 1 and 16 μg/mL inclusive) | 6.00 to 7.00 | B (B represents an MIC between 1 and 16 μg/mL inclusive) | C (C represents an MIC of <1 μg/mL) | B (B represents an MIC between 1 and 16 μg/mL inclusive) | > 7.00 | C (C represents an MIC of <1 μg/mL) | > 7.00 | 6.00 to 7.00 | C (C represents an MIC of <1 μg/mL) | 6.00 to 7.00 |
| O=C(Cn1nnnc1CC(=O)N[C@H]1Cc2cccc(C(=O)O)c2OB1O)N[C@H]1CCNC1 [Example 43, (R)-2-hydroxy-3-(2-(1-(2-oxo-2-(((S)-pyrrolidin-3-yl)amino)ethyl)-1H-tetrazol-5-yl)acetamido)-3,4-dihydro-2H-benzo[e][1,2]oxaborinine-8-carboxylic acid] | B (B represents an MIC between 1 and 16 μg/mL inclusive) | > 7.00 | C (C represents an MIC of <1 μg/mL) | C (C represents an MIC of <1 μg/mL) | B (B represents an MIC between 1 and 16 μg/mL inclusive) | > 7.00 | C (C represents an MIC of <1 μg/mL) | > 7.00 | > 7.00 | C (C represents an MIC of <1 μg/mL) | 6.00 to 7.00 |
